Reference: BindingDB's records for patent US20230399327 (Adlai Nortye Biopharma Co., 2023)

target: Mitogen-activated protein kinase kinase kinase kinase 1 (Homo sapiens, UniProt Q92918); assay: Detection of Compound's Ability to Inhibit HPK1 Kinase Activity Assay
Method: The specific operation is as follows: configure the enzymatic reaction system buffer (10 mM MOPS, pH 7.2, 5 mM β-glycerol-phosphate, 10 mM MgCl2, 0.8 mM EDTA, 2 mM EGTA, 0.1 mM DTT); the test compound (1 mM the compound stock solution in DMSO) was diluted with buffer to the highest concentration of 60 uM (containing 6% DMSO), and the compound with a concentration of 60 μM was initially diluted 5 times with a buffer containing 6% DMSO for a total of 8 points of gradient concentration; then dilute HPK1 kinase to 30 nM in buffer. Add 2 μl of HPK1 kinase diluent to each well of a Greiner 384-well microplate (Cat. No. 784075), and add 2 μl of buffer to the control well; add 1 μl of the diluted compound to the reaction well after brief centrifugation, and add 1 μl buffer solution containing 6% DMSO to the control well; after short centrifugation, place in a 25° C. constant temperature incubator (Shanghai Yiheng Scientific Instrument Co., Ltd., Cat. No.: LRH-150) and incubate for 20 minutes. Add 3 μl of reaction substrate (10 μM MBP and 20 μM ATP dissolved in distilled water) to each well, briefly centrifuge and incubate in a constant temperature incubator at 25° C. for 60 min, and use ADP-Glo Kinase Assay Kit to detect the enzymatic reaction activity, ADP-Glo Kinase Assay Kit detection is carried out according to the operating instructions of the kit. Data are described using the half maximal inhibitory

Chain of Mitogen-activated protein kinase kinase kinase kinase 1 (Q92918 whole entry): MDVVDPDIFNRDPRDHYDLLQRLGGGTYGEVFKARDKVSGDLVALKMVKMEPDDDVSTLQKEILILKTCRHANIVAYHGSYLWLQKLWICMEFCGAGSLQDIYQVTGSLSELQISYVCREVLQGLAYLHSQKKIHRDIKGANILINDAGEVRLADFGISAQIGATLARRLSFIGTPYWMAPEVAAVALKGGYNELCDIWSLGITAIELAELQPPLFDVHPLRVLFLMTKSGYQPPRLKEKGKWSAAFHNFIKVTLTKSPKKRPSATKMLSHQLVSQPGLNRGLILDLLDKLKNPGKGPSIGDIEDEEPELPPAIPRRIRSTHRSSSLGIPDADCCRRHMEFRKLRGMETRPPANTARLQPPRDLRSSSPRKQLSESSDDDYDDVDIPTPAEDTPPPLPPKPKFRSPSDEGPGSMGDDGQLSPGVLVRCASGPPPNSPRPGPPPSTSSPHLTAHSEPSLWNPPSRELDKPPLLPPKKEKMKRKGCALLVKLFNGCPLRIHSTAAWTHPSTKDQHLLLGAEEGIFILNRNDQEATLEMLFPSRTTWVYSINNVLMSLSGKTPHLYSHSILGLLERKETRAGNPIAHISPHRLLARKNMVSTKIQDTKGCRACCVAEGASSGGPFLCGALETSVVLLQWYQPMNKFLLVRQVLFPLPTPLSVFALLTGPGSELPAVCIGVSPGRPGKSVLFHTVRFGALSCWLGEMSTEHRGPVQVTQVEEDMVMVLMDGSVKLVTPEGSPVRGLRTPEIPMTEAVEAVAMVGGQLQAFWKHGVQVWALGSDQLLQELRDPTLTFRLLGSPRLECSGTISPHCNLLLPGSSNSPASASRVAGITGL

SMILES	IC50
COc1nc2c(cc1Nc1ncc3ccnc(C4=CCOCC4)c3n1)CN(C)CC2 [US20230399327, Example 26]	8.31 nM
CN1CCc2[nH]c(=O)c(Nc3ncc4ccnc(NCC(C)(C)CO)c4n3)cc2C1 [US20230399327, Example 70]	0.29 nM
CN1CCc2[nH]c(=O)c(Nc3ncc4ccnc(N5CCSCC5)c4n3)cc2C1 [US20230399327, Example 72]	21.2 nM
CN1CCc2[nH]c(=O)c(Nc3ncc4ccnc(N5CCCCCC5)c4n3)cc2C1 [US20230399327, Example 73]	0.41 nM
CN1CCc2c(cc(Nc3ncc4ccnc(N5CCC(F)(F)C5)c4n3)c(=O)n2C)C1 [US20230399327, Example 85]	25.3 nM
COc1nc2c(cc1Nc1ncc3ccnc(N[C@H](CO)C(C)C)c3n1)CN(C)CC2 [US20230399327, Example 91]	21.5 nM
CCOc1nc2c(cc1Nc1ncc3ccnc(N[C@@H]4CCC[C@H]4O)c3n1)CN(C)CC2 [US20230399327, Example 95]	18.1 nM
CCOc1nc2c(cc1Nc1ncc3ccnc(N[C@H]4CC[C@@H](O)C4)c3n1)CN(C)CC2 [US20230399327, Example 98]	0.44 nM
CCOc1nc2c(cc1Nc1ncc3ccnc(N4CCC[C@H]4CO)c3n1)CN(C)CC2 [US20230399327, Example 106]	15.4 nM
COc1nc2c(cc1Nc1ncc3ccnc(N4CC(F)(F)C[C@H]4CO)c3n1)CN(C)CC2 [US20230399327, Example 108]	< 0.1 nM
COc1nc2c(cc1Nc1ncc3ccnc(NC(C)(C)CO)c3n1)CN(C)CC2 [US20230399327, Example 109]	< 0.1 nM
CC[C@H](CO)Nc1nccc2cnc(Nc3cc4c(nc3OC)CCN(C)C4)nc12 [US20230399327, Example 110]	< 0.1 nM
COc1nc2c(cc1Nc1ncc3ccnc(NCC(C)(C)O)c3n1)CN(C)CC2 [US20230399327, Example 111]	< 0.1 nM
COc1cc2c(cc1Nc1ncc3ccnc(N[C@@H](CO)C(C)C)c3n1)CN(C)CC2 [US20230399327, Example 112]	< 0.1 nM

Second part, the compound after the results:

IC50	SMILES
< 0.1 nM	COc1nc2c(cc1Nc1ncc3cccc(-c4ccccc4)c3n1)CN(C)CC2 [US20230399327, Example 1]
< 0.1 nM	COc1nc2c(cc1Nc1ncc3cccc(-c4cnn5ccccc45)c3n1)CN(C)CC2 [US20230399327, Example 2]
< 0.1 nM	C[C@@H]1CCCCN1c1nccc2cnc(Nc3cc4c([nH]c3=O)CCN(C)C4)nc12 [US20230399327, Example 76]
< 0.1 nM	CN1CCc2[nH]c(=O)c(Nc3ncc4ccnc(NCC5(C)CC5)c4n3)cc2C1 [US20230399327, Example 77]
< 0.1 nM	CN1CCc2c(cc(Nc3ncc4ccnc(N5CCC(F)(F)CC5)c4n3)c(=O)n2C)C1 [US20230399327, Example 79]
< 0.1 nM	CCOc1nc2c(cc1Nc1ncc3ccnc(N[C@H](CO)C(C)C)c3n1)CN(C)CC2 [US20230399327, Example 89]
< 0.1 nM	COc1nc2c(cc1Nc1ncc3ccnc(N4CCC[C@H]4CO)c3n1)CN(C)CC2 [US20230399327, Example 101]
